Read-outs that look alike come from different tables or passages of the source.

Common to all, as to type: cell-based
For one data set, the system named is recombinant NL4-3 virus. Put plainly: HIV cell culture assay (antiviral activity, luciferase readout). The gist of the method: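 MT-2 cells infected for 4-5 days with NL4-3 reference virus carrying Renilla luciferase in place of part of nef, in presence of serial compound dilutions. Luciferase read with live-cell substrate; EC50 from median effect equation fit.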

The test system of another data set is uninfected MT2 cells. Put plainly: Compound cytotoxicity, XTT-based colorimetric assay. The following applies: day 4, XTT assay. The gist of the method:
(§1)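 Run under the antiviral-assay protocol but without virus. Viability was read on day 4 and CC50 values were derived from the readout.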
For orientation: Formazan colour is commonly taken as a measure of viable cells.

Test in data set [1]: as above
The conditions noted are these: human; uninfected MT2 cells, day 4, XTT assay. The gist of the method: as §1

The mark [2] stands for this setting: MT-2 cells infected for 4-5 days with recombinant NL4-3 virus carrying Renilla luciferase, read-out: EC50.
Setting [3] is: Human immunodeficiency virus 1, NL43, MT2, MT-2 cells infected for 4-5 days with recombinant NL4-3 virus carrying Renilla luciferase.

With `Cn1nc(NS(C)(=O)=O)c2c(Cl)ccc(-n3c([C@H](Cc4cc(F)cc(F)c4)NC(=O)Cn4nc(C(F)F)c5c4C(F)(F)[C@@H]4C[C@H]54)nc4nc(-c5cnc(C(C)(C)O)s5)ccc4c3=O)c21` [Example 92, N-((S)-1-((3P)-3-(4-chloro-1-methyl-3-(methylsulfonamido)-1H-indazol-7-yl)-7-(2-(2-hydroxypropan-2-yl)thiazol-5-yl)-4-oxo-3,4-dihydropyrido[2,3-d]pyrimidin-2-yl)-2-(3,5-difluorophenyl)ethyl)-2-((3bS,4aR)-3-(difluoromethyl)-5,5-difluoro-3b,4,4a,5-tetrahydro-1H-cyclopropa[3,4]cyclopenta[1,2-c]pyrazol-1-yl)acetamide], in the data set with recombinant NL4-3 virus (setting [2]), the EC50 (usually the concentration giving half of the maximal effect) is 0.065 nM. The CC50 (as a rule, the concentration at which the toxic effect on the cells reaches its halfway point) with uninfected MT2 cells was greater than 100 nM.
On the same counts, the results for `Cn1nc(NS(C)(=O)=O)c2c(Cl)ccc(-n3c([C@H](Cc4cc(F)cc(F)c4)NC(=O)Cn4nc(C(F)F)c5c4C(F)(F)[C@@H]4C[C@H]54)nc4nc(-c5csc(S(C)(=O)=O)n5)ccc4c3=O)c21` [Example 93, N-((S)-1-((3P)-3-(4-chloro-1-methyl-3-(methylsulfonamido)-1H-indazol-7-yl)-7-(2-(methylsulfonyl)thiazol-4-yl)-4-oxo-3,4-dihydropyrido[2,3-d]pyrimidin-2-yl)-2-(3,5-difluorophenyl)ethyl)-2-((3bS,4aR)-3-(difluoromethyl)-5,5-difluoro-3b,4,4a,5-tetrahydro-1H-cyclopropa[3,4]cyclopenta[1,2-c]pyrazol-1-yl)acetamide] are 0.056 nM and greater than 100 nM.
With `Cn1nc(NS(C)(=O)=O)c2c(Cl)ccc(-n3c([C@H](Cc4cc(F)cc(F)c4)NC(=O)Cn4nc(C(F)F)c5c4C(F)(F)[C@@H]4C[C@H]54)nc4nc(-c5ccc(S(C)(=O)=O)cc5F)ccc4c3=O)c21` (atropisomer, axis not shown; (P)) [Example 32, N-((S)-1-((3P)-3-(4-chloro-1-methyl-3-(methylsulfonamido)-1H-indazol-7-yl)-7-(2-fluoro-4-(methylsulfonyl)phenyl)-4-oxo-3,4-dihydropyrido[2,3-d]pyrimidin-2-yl)-2-(3,5-difluorophenyl)ethyl)-2-((3bS,4aR)-3-(difluoromethyl)-5,5-difluoro-3b,4,4a,5-tetrahydro-1H-cyclopropa[3,4]cyclopenta[1,2-c]pyrazol-1-yl)acetamide], the EC50 with recombinant NL4-3 virus (setting [3]) turned out to be 0.075 nM. Moreover, in data set [1], the CC50 at 4 day was greater than 100 nM.
The matching figures for `Cn1nc(NS(C)(=O)=O)c2c(Cl)ccc(-n3c([C@H](Cc4cc(F)cc(F)c4)NC(=O)Cn4nc(C(F)F)c5c4C(F)(F)[C@@H]4C[C@H]54)nc4nc(-c5ccn(CC(F)(F)C(F)F)n5)ccc4c3=O)c21` (atropisomer, axis not shown; (P)) [Example 84, N-((S)-1-((3P)-3-(4-chloro-1-methyl-3-(methylsulfonamido)-1H-indazol-7-yl)-4-oxo-7-(1-(2,2,3,3-tetrafluoropropyl)-1H-pyrazol-3-yl)-3,4-dihydropyrido[2,3-d]pyrimidin-2-yl)-2-(3,5-difluorophenyl)ethyl)-2-((3bS,4aR)-3-(difluoromethyl)-5,5-difluoro-3b,4,4a,5-tetrahydro-1H-cyclopropa[3,4]cyclopenta[1,2-c]pyrazol-1-yl)acetamide]: 0.041 nM and greater than 100 nM.
As to `Cn1nc(NS(C)(=O)=O)c2c(Cl)ccc(-n3c([C@H](Cc4cc(F)cc(F)c4)NC(=O)Cn4nc(C(F)F)c5c4C(F)(F)[C@@H]4C[C@H]54)nc4nc(-c5cc(C(F)(F)F)nn5CC(C)(F)F)ccc4c3=O)c21` [Example 95, N-((S)-1-((3P)-3-(4-chloro-1-methyl-3-(methylsulfonamido)-1H-indazol-7-yl)-7-(1-(2,2-difluoropropyl)-3-(trifluoromethyl)-1H-pyrazol-5-yl)-4-oxo-3,4-dihydropyrido[2,3-d]pyrimidin-2-yl)-2-(3,5-difluorophenyl)ethyl)-2-((3bS,4aR)-3-(difluoromethyl)-5,5-difluoro-3b,4,4a,5-tetrahydro-1H-cyclopropa[3,4]cyclopenta[1,2-c]pyrazol-1-yl)acetamide], the EC50 in the data set on recombinant NL4-3 virus (setting [2]) worked out at 0.25 nM. Moreover, the CC50 with uninfected MT2 cells is greater than 100 nM.
Take `Cc1ccnc(-c2ccc3c(=O)n(-c4ccc(Cl)c5c(NS(C)(=O)=O)nn(C)c45)c([C@H](Cc4cc(F)cc(F)c4)NC(=O)Cn4nc(C(F)F)c5c4C(F)(F)[C@@H]4C[C@H]54)nc3n2)n1` (atropisomer, axis not shown; (P)) [Example 10, N-((S)-1-((3P)-3-(4-chloro-1-methyl-3-(methylsulfonamido)-1H-indazol-7-yl)-7-(4-methylpyrimidin-2-yl)-4-oxo-3,4-dihydropyrido[2,3-d]pyrimidin-2-yl)-2-(3,5-difluorophenyl)ethyl)-2-((3bS,4aR)-3-(difluoromethyl)-5,5-difluoro-3b,4,4a,5-tetrahydro-1H-cyclopropa[3,4]cyclopenta[1,2-c]pyrazol-1-yl)acetamide]: the EC50 with recombinant NL4-3 virus (setting [3]) was 0.03 nM. Besides, in data set [1], the CC50 at 4 day was greater than 100 nM.
On the same counts, the results for `Cn1nc(NS(C)(=O)=O)c2c(Cl)ccc(-n3c([C@H](Cc4cc(F)cc(F)c4)NC(=O)Cn4nc(C(F)F)c5c4C(F)(F)[C@@H]4C[C@H]54)nc4nc(-c5ccn(CC(F)(F)C(F)(F)F)n5)ccc4c3=O)c21` (atropisomer, axis not shown; (P)) [Example 88, N-((S)-1-((3P)-3-(4-chloro-1-methyl-3-(methylsulfonamido)-1H-indazol-7-yl)-4-oxo-7-(1-(2,2,3,3,3-pentafluoropropyl)-1H-pyrazol-3-yl)-3,4-dihydropyrido[2,3-d]pyrimidin-2-yl)-2-(3,5-difluorophenyl)ethyl)-2-((3bS,4aR)-3-(difluoromethyl)-5,5-difluoro-3b,4,4a,5-tetrahydro-1H-cyclopropa[3,4]cyclopenta[1,2-c]pyrazol-1-yl)acetamide] are 0.079 nM and greater than 100 nM.
`Cn1nc(NS(C)(=O)=O)c2c(Cl)ccc(-n3c([C@H](Cc4cc(F)cc(F)c4)NC(=O)Cn4nc(C(F)F)c5c4C(F)(F)[C@@H]4C[C@H]54)nc4nc(-n5cnc(C(F)(F)F)n5)ccc4c3=O)c21` (atropisomer, axis not shown; (P)) [Example 80, N-((S)-1-((3P)-3-(4-chloro-1-methyl-3-(methylsulfonamido)-1H-indazol-7-yl)-4-oxo-7-(3-(trifluoromethyl)-1H-1,2,4-triazol-1-yl)-3,4-dihydropyrido[2,3-d]pyrimidin-2-yl)-2-(3,5-difluorophenyl)ethyl)-2-((3bS,4aR)-3-(difluoromethyl)-5,5-difluoro-3b,4,4a,5-tetrahydro-1H-cyclopropa[3,4]cyclopenta[1,2-c]pyrazol-1-yl)acetamide]: in the data set on recombinant NL4-3 virus (setting [3]), the EC50 was determined as 0.028 nM. In addition, the CC50 at 4 day in data set [1] was greater than 100 nM.
Turning to `Cn1nc(NS(C)(=O)=O)c2c(Cl)ccc(-n3c([C@H](Cc4cc(F)cc(F)c4)NC(=O)Cn4nc(C(F)F)c5c4C(F)(F)[C@@H]4C[C@H]54)nc4nc(-c5ccnn5C5CC5)ccc4c3=O)c21` (atropisomer, axis not shown; (P)) [Example 77, N-((S)-1-((3P)-3-(4-chloro-1-methyl-3-(methylsulfonamido)-1H-indazol-7-yl)-7-(1-cyclopropyl-1H-pyrazol-5-yl)-4-oxo-3,4-dihydropyrido[2,3-d]pyrimidin-2-yl)-2-(3,5-difluorophenyl)ethyl)-2-((3bS,4aR)-3-(difluoromethyl)-5,5-difluoro-3b,4,4a,5-tetrahydro-1H-cyclopropa[3,4]cyclopenta[1,2-c]pyrazol-1-yl)acetamide], in the data set with recombinant NL4-3 virus (setting [3]), the EC50 worked out at 0.073 nM. For the same compound, the 50% cytotoxic concentration (CC50) at 4 day in data set [1] is greater than 100 nM.

The record behind these values is patent US20220389007A1, “INHIBITORS OF HUMAN IMMUNODEFICIENCY VIRUS REPLICATION” (VIIV HEALTHCARE UK (No. 5) LIMITED, priority 2019, published 2022).
